Measured values reported in ChEMBL document CHEMBL5104132, “Identification of sugar-containing natural products that interact with i-motif DNA” (Bioorg Med Chem Lett, 2022).

What was measured:
Assay type in all cases: nucleic-acid assay
i-motif DNA [1] = assay: Displacement of thiazole orange from human telomeric 1ELN i-motif DNA at 100 equiv. at pH 5.5 by fluorescent intercalator displacement assay
dsDNA [2] = assay: Displacement of thiazole orange from human 1BNA double stranded DNA at 10 equiv. at pH 7.4 by fluorescent intercalator displacement assay
i-motif DNA [3] = assay: Binding affinity to human telomeric 1ELN i-motif DNA assessed as change in melting temperature at 20 uM at pH 5.5 by FRET assay
Quadruplex DNA [4] = assay: Binding affinity to human ILPR G4 quadruplex DNA assessed as change in melting temperature at 20 uM at pH 7.4 by FRET assay
i-motif DNA [5] = assay: Displacement of thiazole orange from human ILPR i-motif DNA at 10 equiv. at pH 5.5 by fluorescent intercalator displacement assay
i-motif DNA [6] = assay: Displacement of thiazole orange from human telomeric 1ELN i-motif DNA at 100 equiv. at pH 7.4 by fluorescent intercalator displacement assay
Quadruplex DNA [7] = assay: Displacement of thiazole orange from human telomeric IKF1 G4 quadruplex DNA at 10 equiv. at pH 7.4 by fluorescent intercalator displacement assay
Quadruplex DNA [8] = assay: Displacement of thiazole orange from human ILPR G4 quadruplex DNA at 10 equiv. at pH 7.4 by fluorescent intercalator displacement assay
i-motif DNA [9] = assay: Displacement of thiazole orange from human ILPR i-motif DNA at 100 equiv. at pH 7.4 by fluorescent intercalator displacement assay
i-motif DNA [10] = assay: Binding affinity to human ILPR i-motif DNA assessed as change in melting temperature at 20 uM at pH 5.5 by FRET assay
dsDNA [11] = assay: Binding affinity to human 1BNA double stranded DNA assessed as change in melting temperature at 20 uM at pH 7.4 by FRET assay
i-motif DNA [12] = assay: Displacement of thiazole orange from human ILPR i-motif DNA at 10 equiv. at pH 7.4 by fluorescent intercalator displacement assay
i-motif DNA [13] = assay: Displacement of thiazole orange from human ILPR i-motif DNA at 100 equiv. at pH 5.5 by fluorescent intercalator displacement assay
i-motif DNA [14] = assay: Displacement of thiazole orange from human telomeric 1ELN i-motif DNA at 10 equiv. at pH 7.4 by fluorescent intercalator displacement assay
i-motif DNA [15] = assay: Displacement of thiazole orange from human telomeric 1ELN i-motif DNA at 10 equiv. at pH 5.5 by fluorescent intercalator displacement assay
Quadruplex DNA [16] = assay: Binding affinity to human telomeric IKF1 G4 quadruplex DNA assessed as change in melting temperature at 20 uM at pH 7.4 by FRET assay
i-motif DNA [17] = assay: Binding affinity to human ILPR i-motif DNA assessed as change in melting temperature at 20 uM at pH 7.4 by FRET assay
dsDNA [18] = assay: Displacement of thiazole orange from human 1BNA double stranded DNA at 100 equiv. at pH 7.4 by fluorescent intercalator displacement assay
Quadruplex DNA [19] = assay: Displacement of thiazole orange from human telomeric IKF1 G4 quadruplex DNA at 100 equiv. at pH 7.4 by fluorescent intercalator displacement assay
i-motif DNA [20] = assay: Binding affinity to human telomeric 1ELN i-motif DNA assessed as change in melting temperature at 20 uM at pH 7.4 by FRET assay
Quadruplex DNA [21] = assay: Displacement of thiazole orange from human ILPR G4 quadruplex DNA at 100 equiv. at pH 7.4 by fluorescent intercalator displacement assay
i-motif DNA [22] = assay: Binding affinity to human c-Myc promoter i-motif DNA by SPR analysis
dsDNA [23] = assay: Binding affinity to human double stranded DNA by SPR analysis
i-motif DNA [24] = assay: Binding affinity to human telomeric i-motif DNA by SPR analysis

Structure (SMILES)	Activity (i-motif DNA [1]) [%]	Activity (dsDNA [2]) [%]	ΔTm (i-motif DNA [3]) [°C]	ΔTm (Quadruplex DNA [4]) [°C]	Activity (i-motif DNA [5]) [%]	Activity (i-motif DNA [6]) [%]	Activity (Quadruplex DNA [7]) [%]	Activity (Quadruplex DNA [8]) [%]	Activity (i-motif DNA [9]) [%]	ΔTm (i-motif DNA [10]) [°C]	ΔTm (dsDNA [11]) [°C]	Activity (i-motif DNA [12]) [%]	Activity (i-motif DNA [13]) [%]	Activity (i-motif DNA [14]) [%]	Activity (i-motif DNA [15]) [%]	ΔTm (Quadruplex DNA [16]) [°C]	ΔTm (i-motif DNA [17]) [°C]	Activity (dsDNA [18]) [%]	Activity (Quadruplex DNA [19]) [%]	ΔTm (i-motif DNA [20]) [°C]	other results
O=c1c(-c2ccc(O)cc2)coc2cc(O[C@@H]3O[C@H](CO)[C@@H](O)[C@H](O)[C@H]3O)cc(O)c12	19.3	6.2	-0.8	-4.7	5.3	-288	20.8	1.6	31.8	-0.4	-3	24.2	23.5	16.2	0.6	-6.6	-2.4	14.5	28.7	-5.4	Activity (Quadruplex DNA [21]): 6.4%
O=C(O)C1=CO[C@@H](O[C@@H]2O[C@H](CO)[C@@H](O)[C@H](O)[C@H]2O)[C@@H]2C(CO)=CC[C@H]12	22.9	6.4	-0.5	-3.6	-3.5	-37.8	23	4.1	22	-0.3	-4.8	12.3	25.3	2.6	-10.2	-4.7	-2.2	9.6	25.2	-2.5	Activity (Quadruplex DNA [21]): 1.4%
COC(=O)C1=CO[C@@H](O[C@@H]2O[C@H](CO)[C@@H](O)[C@H](O)[C@H]2O)[C@@H]2C(CO)=CC[C@H]12	32.3	8.5	-0.5	-2.9	7.2	-84.1	23.1	-6.7	31.8	-0.1	-3.5	21.2	27.9	-32	-9.5	-6.1	-1.8	11.2	25.7	-1.8	Activity (Quadruplex DNA [21]): 1.8%
OC[C@H]1O[C@@H](O[C@@H]2[C@@H](CO)O[C@](O)(CO)[C@H]2O)[C@H](O)[C@@H](O)[C@H]1O	20.2	4.3	-0.4	-4.6	-5	-68	21.4	0.9	34.7	-0.3	-2.7	26.7	23.1	-54	-28.4	-4	-2.7	9	26.1	-3.7	Activity (Quadruplex DNA [21]): 0.4%
O=c1c(-c2ccc(O)cc2)coc2cc(O[C@@H]3O[C@H](CO)[C@@H](O)[C@H](O)[C@H]3O)ccc12	20.3	7	-0.3	-1.8	-2.5	-154	20.9	2.6	28.9	-0.1	-2.3	20	22.6	14.9	-4.2	-2.4	-2.4	10.9	29	0	Activity (Quadruplex DNA [21]): 2.4%
NC[C@H]1O[C@H](O[C@H]2[C@H](O)[C@@H](O[C@H]3O[C@H](CO)[C@@H](O)[C@H](N)[C@H]3O)[C@H](N)C[C@@H]2N)[C@H](N)C[C@@H]1O [TOBRAMYCIN]																					Kd (i-motif DNA [22]): 13 µM; Kd (dsDNA [23]): 18 µM; Kd (i-motif DNA [24]): 17 µM
O=C(O)[C@H]1O[C@@H](Oc2cc3oc(-c4ccccc4)cc(=O)c3c(O)c2O)[C@H](O)[C@@H](O)[C@@H]1O	36.5	8.2	-0.4	-3.8	9.5	-91.2	24	4.9	38.5	-0.3	-2.5	23.9	35.3	-3.8	12.2	-1.8	-2.6	25.3	46.3	-3.9	Activity (Quadruplex DNA [21]): 17.7%
O=c1ccc2cc(O[C@@H]3O[C@H](CO)[C@@H](O)[C@H](O)[C@H]3O)c(O)cc2o1			-0.4	-2.4						0	-2.7					-7.6	-2.6			-6.4	
